The values that follow come from article PMC3746001 (ACS chemical biology, 2013).

SMILES strings stand for the structures. Where “and” joins values, the source holds several entries; their conditions need not be identical. Equal entries are not always repeated.

The test system of data set [1] is human tumor cell lines. Particulars: cited from earlier work.
For data set [2], the target named is T1, human DNA polymerase eta (hpol η) (Homo sapiens, UniProt Q9Y253).
T1 sequence (Q9Y253 1-437): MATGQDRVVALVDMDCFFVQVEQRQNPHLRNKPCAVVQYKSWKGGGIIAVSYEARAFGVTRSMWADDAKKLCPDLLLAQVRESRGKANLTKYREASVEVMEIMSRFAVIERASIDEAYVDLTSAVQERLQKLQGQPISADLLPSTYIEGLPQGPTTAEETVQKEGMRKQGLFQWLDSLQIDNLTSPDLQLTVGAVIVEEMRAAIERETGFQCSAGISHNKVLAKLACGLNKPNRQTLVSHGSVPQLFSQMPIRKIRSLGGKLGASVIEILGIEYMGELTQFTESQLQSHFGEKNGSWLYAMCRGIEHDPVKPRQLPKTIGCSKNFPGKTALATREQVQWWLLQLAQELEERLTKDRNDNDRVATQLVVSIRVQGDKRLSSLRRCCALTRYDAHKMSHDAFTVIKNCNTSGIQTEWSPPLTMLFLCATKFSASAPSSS
Put plainly: Fluorescence-based polymerase strand-displacement assay, hpol η. It is filed as biochemical. The following applies: for IC50: read-out: IC50 for inhibition of hpol η, 10 nM hpol η, 50 nM DNA, 0.1 mM dTTP, mean ± standard deviation, triplicate.

The target of data set [3] is T2, human Y-family DNA polymerase kappa (hpol κ) (Homo sapiens, UniProt Q9UBT6).
T2 sequence (Q9UBT6 19-526): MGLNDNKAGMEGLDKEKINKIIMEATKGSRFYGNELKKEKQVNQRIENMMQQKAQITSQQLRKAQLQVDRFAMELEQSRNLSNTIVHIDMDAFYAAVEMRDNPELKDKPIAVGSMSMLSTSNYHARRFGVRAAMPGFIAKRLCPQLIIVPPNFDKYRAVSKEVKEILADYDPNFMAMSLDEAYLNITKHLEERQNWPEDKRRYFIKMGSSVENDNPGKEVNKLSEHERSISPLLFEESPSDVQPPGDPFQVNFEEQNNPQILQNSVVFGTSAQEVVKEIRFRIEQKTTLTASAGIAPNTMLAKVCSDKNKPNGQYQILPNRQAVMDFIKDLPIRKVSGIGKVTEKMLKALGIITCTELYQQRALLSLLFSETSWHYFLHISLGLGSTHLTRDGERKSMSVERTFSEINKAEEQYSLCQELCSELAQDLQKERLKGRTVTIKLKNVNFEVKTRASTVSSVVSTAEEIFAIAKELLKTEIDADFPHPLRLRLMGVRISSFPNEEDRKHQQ
In words: Fluorescence-based polymerase assay, hpol κ. Type of data set: biochemical. Particulars: read-out: IC50 for inhibition of hpol κ; 3 nM hpol κ, 60 nM DNA; mean ± standard deviation.

Data set [4] deals with T3, hetero-dimeric hpol γ (Homo sapiens, UniProt P54098).
T3 sequence (P54098 1-1239): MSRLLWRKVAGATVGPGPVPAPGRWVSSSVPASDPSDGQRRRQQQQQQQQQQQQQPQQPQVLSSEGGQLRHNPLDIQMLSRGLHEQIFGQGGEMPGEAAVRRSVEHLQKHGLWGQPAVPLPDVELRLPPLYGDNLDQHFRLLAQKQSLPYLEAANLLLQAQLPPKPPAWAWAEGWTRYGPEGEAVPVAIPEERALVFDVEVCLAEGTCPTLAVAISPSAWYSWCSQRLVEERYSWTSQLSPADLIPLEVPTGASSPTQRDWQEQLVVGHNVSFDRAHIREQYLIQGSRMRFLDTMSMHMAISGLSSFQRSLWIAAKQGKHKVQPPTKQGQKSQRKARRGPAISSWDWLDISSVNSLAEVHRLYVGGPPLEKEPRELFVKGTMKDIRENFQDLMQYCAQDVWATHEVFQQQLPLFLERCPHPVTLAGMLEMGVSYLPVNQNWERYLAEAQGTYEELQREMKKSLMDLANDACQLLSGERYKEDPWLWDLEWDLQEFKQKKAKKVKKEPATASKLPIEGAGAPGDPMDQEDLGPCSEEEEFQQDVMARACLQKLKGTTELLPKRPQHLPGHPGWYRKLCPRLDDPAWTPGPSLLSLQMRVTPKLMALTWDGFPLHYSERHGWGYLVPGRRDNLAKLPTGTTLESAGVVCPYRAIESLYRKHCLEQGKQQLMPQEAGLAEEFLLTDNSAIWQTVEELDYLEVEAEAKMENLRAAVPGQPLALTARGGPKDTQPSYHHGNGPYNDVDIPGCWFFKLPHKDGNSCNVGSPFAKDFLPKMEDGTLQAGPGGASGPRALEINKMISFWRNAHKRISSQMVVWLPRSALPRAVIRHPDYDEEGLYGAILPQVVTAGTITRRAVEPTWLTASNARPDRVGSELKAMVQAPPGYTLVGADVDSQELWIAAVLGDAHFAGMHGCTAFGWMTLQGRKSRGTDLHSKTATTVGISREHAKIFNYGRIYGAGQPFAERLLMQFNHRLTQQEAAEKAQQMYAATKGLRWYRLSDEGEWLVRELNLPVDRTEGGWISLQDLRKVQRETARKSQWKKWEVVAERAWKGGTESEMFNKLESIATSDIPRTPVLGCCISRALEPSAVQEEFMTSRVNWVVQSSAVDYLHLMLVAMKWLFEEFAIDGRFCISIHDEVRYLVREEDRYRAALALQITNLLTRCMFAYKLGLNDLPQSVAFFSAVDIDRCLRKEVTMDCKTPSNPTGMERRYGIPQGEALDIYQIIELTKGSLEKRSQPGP
T3 sequence (Q9UHN1 26-485 partner limits assumed): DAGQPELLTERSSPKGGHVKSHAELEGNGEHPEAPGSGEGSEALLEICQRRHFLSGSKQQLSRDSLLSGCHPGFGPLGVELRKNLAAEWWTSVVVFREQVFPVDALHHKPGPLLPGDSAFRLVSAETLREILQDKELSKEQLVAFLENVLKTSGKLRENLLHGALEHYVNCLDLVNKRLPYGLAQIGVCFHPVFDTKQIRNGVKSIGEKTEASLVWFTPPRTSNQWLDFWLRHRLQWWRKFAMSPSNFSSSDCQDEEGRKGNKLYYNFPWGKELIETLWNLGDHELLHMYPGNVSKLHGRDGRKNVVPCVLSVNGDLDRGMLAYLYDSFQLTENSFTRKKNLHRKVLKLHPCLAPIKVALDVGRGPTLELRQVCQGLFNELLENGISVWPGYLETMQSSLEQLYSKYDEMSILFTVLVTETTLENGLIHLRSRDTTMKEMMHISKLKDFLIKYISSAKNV
In words: Fluorescence-based polymerase assay, hpol γ. It is filed as biochemical. Particulars: read-out: IC50 for inhibition of hpol γ; 10 nM hpol γ, 50 nM DNA; mean ± standard deviation.

In data set [5] the target is T4, hpol ι (Homo sapiens, UniProt Q9UNA4).
T4 sequence (Q9UNA4 26-446): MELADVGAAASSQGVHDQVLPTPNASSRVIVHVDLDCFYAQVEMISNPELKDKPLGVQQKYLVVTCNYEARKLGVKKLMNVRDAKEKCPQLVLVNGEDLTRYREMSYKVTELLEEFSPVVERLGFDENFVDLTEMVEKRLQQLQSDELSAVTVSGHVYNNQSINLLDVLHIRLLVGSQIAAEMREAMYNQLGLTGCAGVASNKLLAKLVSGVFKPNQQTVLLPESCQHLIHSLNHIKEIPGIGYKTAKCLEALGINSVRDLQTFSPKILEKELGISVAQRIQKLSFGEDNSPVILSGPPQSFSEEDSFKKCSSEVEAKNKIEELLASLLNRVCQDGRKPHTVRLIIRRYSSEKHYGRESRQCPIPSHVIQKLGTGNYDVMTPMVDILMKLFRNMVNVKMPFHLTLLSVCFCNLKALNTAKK
Particulars: cited from earlier work.

Data set [6] concerns hpol η. Particulars: cited from earlier work.
Data set [7] deals with hpol β. Particulars: cited from earlier work.

For `O=C1NC(=S)NC(=O)C1=Cc1cn(C(=O)c2cccc3ccccc23)c2ccc(Cl)cc12` [ITBA-17], the “Anti-proliferative and cytotoxic properties” value in data set [1] was “potent anti-proliferative and cytotoxic properties”.
Take `O=C1NC(=S)NC(=O)C1=Cc1cn(C(=O)c2cccc3ccccc23)c2ccc(Cl)cc12` [ITBA-16]: in data set [2] (hpol η versus seven other polymerases), the “Fold by which IC50 for hpol η is lower than any of the other pols tested” value was “over 2 fold”. In addition, the IC50 in data set [2] is 16 µM and 15.8 µM; in data set [3], 32.9 ± 3.2 µM; in data set [4] it was 35.3 ± 2.9 µM.
Take `O=C1NC(=S)NC(=O)C1=Cc1cn(C(=O)c2ccc3ccccc3c2)c2ccccc12` [ITBA-18]: in data set [2] (50 μM compound, relative to DMSO control (Figure 4C)), the “Inhibition of hpol η activity (percent activity relative to control), in words” value was “roughly equal activity against hpol η”. Also, the half-inhibitory concentration (IC50) in data set [2] was found to be 67.8 ± 3.3 µM.
`CC(C)c1ccc2c(c1)c(SC(C)(C)C)c(CC(C)(C)C(=O)O)n2Cc1ccc(Cl)cc1` [MK886]: the “Inhibition of hpol ι relative to other Y-family pols” value in data set [5] (hpol ι versus other Y-family pols) is recorded as “five- to eight-times more effectively”. For the same compound, the IC50 in data set [5] (read-out: IC50 for inhibition of hpol ι) is 9 µM; in data set [6] (read-out: IC50 for inhibition of hpol η) it was roughly 46 µM.
In the case of `O=c1oc2c(O)c(O)cc3c(=O)oc4c(O)c(O)cc1c4c23` [ellagic acid], in data set [5], the “IC50 for inhibition of hpol ι” value is listed as “sub-micromolar”. Besides, in data set [6], the “IC50 for inhibition of hpol η” value is recorded as “sub-micromolar”. Moreover, in data set [7], the “IC50 for inhibition of hpol β” value is listed as “sub-micromolar” and the “Specificity against hpol β” value is reported as “greater than 2 fold”.
For `O=C(O)C1=CC(=C(c2ccc(O)c(C(=O)O)c2)c2ccc(O)c(C(=O)O)c2)C=CC1=O` [aurintricarboxylic acid], the “IC50 for inhibition of hpol ι” value in data set [5] is on record as “sub-micromolar”. Moreover, in data set [6], the “IC50 for inhibition of hpol η” value is given as “sub-micromolar”. In data set [7], the “IC50 for inhibition of hpol β” value is recorded as “sub-micromolar” and the “Specificity against hpol β” value is “greater than 2 fold”.

For orientation: IC50 means the point on the concentration scale where inhibition reaches its midpoint.
